Assay results reported in a melting point compilation (Tetko et al.; mined from patent text by program, amines drawn as free bases though some values may be those of a salt).

melting point [°C]	SMILES
189 to 190	NC(=O)c1nnn(Cc2ccccc2F)c1N
192 to 193	CC(C)c1c(CC[C@@H]2C[C@@H](O)CC(=O)O2)n(-c2ccc(F)cc2)c(=O)c2ccccc12
161	CC(=S)NCC1CN(c2ccc(S(=O)CCF)c(F)c2)C(=O)O1 (configuration not stated)
53 to 55	CCCCCCCCCCCCN1CCN(CCCCCCNc2cc(OC)cc3c(C)ccnc23)CC1
192 to 194	CC(C(N)=O)n1nc(-c2cc(C(C)(C)C)c(O)c(C(C)(C)C)c2)c2cccnc21 (configuration not stated)
188 to 190	CCOC(=O)c1cccc2[nH]c(=O)oc(=O)c12
132 to 134	COc1ccc2c(c1)CCN(C#N)C2c1cc(OC)c(OC)c(OC)c1 (single isomer, unassigned; (-))
175	CCCCc1nc(-c2ccc(N3CCN(C(=O)c4ccccc4C(F)(F)F)CC3)nn2)no1
170 to 172	CCc1nc2nc3cc(Cl)ccc3nc2n1C(=O)C=C(C)C
158	O=C(O)c1cccc(Oc2ncc(C(F)(F)F)cc2Cl)c1
103 to 104	COCC1CC(=O)c2nc(C)c(C)n2C1 (configuration not stated)
199	CCn1cc(C(=O)Nc2cc(Oc3ccc4nc(NC(=O)C5CC5)cn4n3)ccc2F)c(C)n1
246 to 248	COC(=O)c1[nH]c(-c2ccccc2)c(NC(N)=O)c1C(=O)OC
221	COC(=O)c1ccc(O)c(O)c1O
78 to 82	CC(CC(=O)NC(C)(C)C#CCl)Oc1cncc(Cl)c1 (configuration not stated)
277 to 279	CC(C)Oc1cccc(C=C2Oc3ccc(C(=O)O)cc3C2=O)c1
58 to 59	CC(C)(C)OC(=O)NOCCC(=O)Oc1c(F)c(F)c(F)c(F)c1F
178	C=CCOc1cc(C)c2c(C)cc(=O)oc2c1
123 to 125	CC1(C)CCc2c(-c3ccco3)nc3sc4c(NCCN5CCOCC5)ncnc4c3c2C1
71 to 75	COC(=O)Cc1ccc(CNC(=O)C2Cc3ccccc3N2S(=O)(=O)c2ccc(-c3ccc(F)cc3C)cc2)cc1 (configuration not stated)

melting point [°C]	SMILES
178	COCc1cccc(-c2c(Cl)ncn2-c2ccc(S(C)(=O)=O)cc2)c1
145 to 146	COC(=O)c1cccc2c1Oc1c(cccc1C(=O)OC)N2
130 to 133	CCOC(=O)COc1cccc(C(=O)Nc2ccccc2Sc2ccccc2-c2nnn[nH]2)c1
130 to 132	O=C(O)CC1CCCCC1Oc1ccc(C(=O)c2ccc(Cl)cc2)cc1 (configuration not stated)
245 to 247	O=C(O)Cc1sc(S)nc1-c1ccc(Cl)cc1
86 to 88	O=C(Cc1ncccn1)c1ccc(F)cc1F
276 to 278	Cc1nc2ccc(Cl)cc2c(=O)n1C1CCC(=O)NC1=O (configuration not stated)
225 to 226	COc1ccc(NS(=O)(=O)c2cc3cc(Cl)ccc3oc2=O)cc1O
73 to 83	COc1ccc(COC(=O)c2nc(-c3ccc(Cl)c(OC)c3F)cc(N)c2Cl)cc1
106 to 110	CC(C)(C)n1nc(Cc2ccccc2)c(C#N)c1N
156 to 158	COc1cc(C2=CCN(S(=O)(=O)C(C)(C)C(=O)NO)CC2)ccc1-c1ccccc1
114 to 116	CC(C)CCCC(C)C1CCC2C3=CC=C4CC(O)C(OCCCO)C(O)C4(C)C3CCC21C (configuration not stated)
179 to 180	CC1(C)C(=O)C(C)(C)c2cc(N)c(N)cc21
93 to 95	Cc1cc(F)ccc1NC(=O)OC(C)(C)C
96 to 110	CNC(=O)c1cc(N(C)C)ccc1Nc1nc(Nc2cc3c(cc2OC)CCN(CC(=O)N(C)C)CC3)ncc1Cl
195 to 196	CCCOc1cc2c(cc1C1CCCc3oc(/C=C/C(=O)O)cc31)C(C)(C)CCC2(C)C (configuration not stated)
145 to 147	COC(=O)c1ccc(O)c(C(=O)CC(=O)c2cc(C)ccc2OC)c1
130 to 131	CCCCOc1c(CNC(=O)OC(C)(C)C)n(CC(C)C)c(=O)c2ccc(-c3cccs3)cc12
167 to 169	COc1ccccc1N1CCN(CCCCN(C(N)=O)C(C)(C)C)CC1
170 to 172	CC1=C(C(=O)CCl)C2(C)CCC3C(CC=C4CC(O)CCC43C)C2C1 (configuration not stated)

melting point [°C]	SMILES
256	COc1cc2nc(C(=O)Nc3cc(C)cc(C)n3)[nH]c2cc1OC
214 to 215	Cc1noc(NC(=O)N2CCN(c3nccc(-c4ccc(F)c(F)c4)n3)CC2)c1C
265 to 266	CCOC(=O)c1ncc2[nH]c3ccc(SC)cc3c2n1
202 to 204	CCCC(=O)Nc1c2c(nc3ccccc13)CCCC2
39 to 41	CCCCCCCC(O)C(C)(C)C(=O)O (configuration not stated)
84.5 to 86	CC(C)(C)OC(=O)NCCC(=O)NCC(C(=O)OCc1ccccc1)c1ccccc1 (configuration not stated)
248 to 249	COc1ccc2[nH]c(=O)nc(C)c2c1OC
115 to 121	COC(=O)c1ccccc1C1NC(=S)C(C)(C(C)C)N1 (configuration not stated)
135 to 136	CSc1nccc(Oc2ccc(NC(=O)c3cccc(OC(C)(C)C)c3)c3ccccc23)n1
129	COC(=O)C(O)C(NC(=O)OCc1ccccc1)C(=O)OC (configuration not stated)
146 to 148	Fc1ccc(C2=C(c3ccccc3)N(C(F)(F)F)CO2)cc1F
138	COC(=O)[C@@H]1CCCN1S(=O)(=O)c1ccc(Cl)c(COc2cccc3c(C)cc(C)nc23)c1Cl
216 to 217	CCCCc1nc2cccc(CC(=O)O)c2n1Cc1ccccc1Cl
232 to 234	NC(=O)c1sc2nccc(N3CCOCC3)c2c1N
209 to 214	COc1ccc2nc(COc3ccc(CC(SC(C)=O)C(=O)O)cc3)n(C)c2c1 (configuration not stated)
155 to 160	CC1CC2C3CCC4=CC(=O)C=CC4(C)C3=CCC2(C)C1C(=O)CN1CCN(c2cc(NCC(C)(C)C)nc(NC(C)(C)C)n2)CC1 (configuration not stated)
215 to 216	CN(C)c1ccc(NC(=O)C(C#N)C(=O)c2nn(-c3ccccc3)c3c2CSc2ccccc2-3)cc1 (configuration not stated)
140 to 142	CC1(C)CCc2c(ccc3c2C(=O)C(Cl)=CC3=O)O1
49	C=C(C)C(=O)OCCCc1cc(CCCOC(=O)C(=C)C)c2oc(=O)c(-c3ccc(OC(=O)C(=C)C)cc3)cc2c1
96 to 99	CCCn1cc(Cc2ccc(C(=O)NS(=O)(=O)c3ccccc3Br)cc2OC)c2cc(CCC(C)C(=O)N(C)C)ccc21 (configuration not stated)

More lines, now with the values behind:

SMILES	melting point [°C]
Cc1ccc(C)n1-c1ccc2c(c1)ncn2-c1cccc(-n2ccnc2)c1	141 to 142
CN(C)c1ccc(C(=S)Nc2ccc([N+](=O)[O-])cc2)cc1	210
C=CCOc1ccc2ccc(O)cc2c1	78 to 80
CC1OC(Cn2cncn2)(c2ccc(Cl)cc2Cl)OC1C (single isomer, unassigned; (-))	82.5
O=c1[nH]c2ccc(F)cc2s1	188 to 189
CC12CC(N3CCCCC3)CCC1CCC1C2CCC2(C)C(O)C(N3CCCCC3)CC12 (configuration not stated)	176 to 181
CN1CCCC1Cc1cn(Cc2ccccc2)c2ccc(C(C#N)S(=O)(=O)N(C)C(c3ccccc3)c3ccccc3)cc12 (configuration not stated)	152 to 155
S=C(Nc1ccc(Nc2ccccc2)cc1)Nc1ccc(Nc2ccccc2)cc1	164 to 171
Cc1ccc(-c2cc(O)c3[nH]c(=O)ccc3c2)c(C)n1	276 to 277
CCNC(=O)Nc1nccc(-c2ccncc2)n1	204 to 207
Clc1ccc2nc(CN3CCN(c4ccccc4)CC3)cn2c1	128 to 130
O=C(O)c1cnc2cnc3ccccc3n2c1=O	216 to 218
CC(=O)NC1(c2ccccc2)CC1	94 to 95
O=C1Nc2ccc(Oc3ccccc3)cc2SC(c2ccc3c(c2)OCO3)C1O (configuration not stated)	228 to 230
Nc1cccc(-c2ccnc3c(Br)cnn23)c1	120 to 121
COc1cc(P(c2ccccc2)c2ccccc2)c(Br)c(OC)n1	150 to 151
O=C1NC2C3C=CC(C3)C12 (configuration not stated)	94 to 97
COc1ccc2[nH]c(-c3ccccc3)cc2c1	148 to 149
O=[N+]([O-])c1cccc(CNc2nnn[nH]2)c1	208 to 210
CCCCc1nnc(C(=O)N(C)Cc2ccccc2)n1Cc1ccc(-c2ccccc2-c2nnn[nH]2)cc1	> 95
Cc1cc(Cl)cc(C(=O)NC(C)CSC[Si](C)(C)C)c1NC(=O)c1cc(Br)nn1-c1ncccc1Cl (configuration not stated)	151 to 153

SMILES	melting point [°C]
N#Cc1ccc(/C=C/C=C/C=O)c(F)c1	174 to 177
CCCCn1nnc2cc(C(O)c3ccsc3)ccc21 (configuration not stated)	80
O=C(Nc1ccc(C(=O)N2CCc3cn[nH]c3-c3ncccc32)c(Cl)c1)c1ccccc1-c1ccccc1	181 to 192
O=C(O)c1ccccc1CCCCc1ccccc1	82 to 84
CCCCN1C(=O)CN(c2ccccc2)C1=O	74
O=C1O[C@@H]2C[C@@]1(O)c1cc(-c3ccccc3)sc1[C@H]2O	168 to 173
CC(C)CN(Cc1ccccc1)c1ncnc2nc[nH]c12	160 to 162
CC(Cc1ccc(OCCCO)cc1)NCC(O)c1cccc(C(F)(F)F)c1 (configuration not stated)	97 to 103
CCCCCCCCCCCCCCC(O)=S	60 to 62
Fc1ccc2c(c1)N=C(N1CCNCC1)c1sccc1N2	165 to 167
O=C1COc2ccc(C3=Nn4cnnc4SC3c3ccccn3)cc2N1 (configuration not stated)	216 to 218
C=CCN(C)CCCCCCOc1ccc2c(-c3ccc(Br)cc3)cc(C)nc2c1	88 to 93
COc1c(C)sc2nc(SCc3ccccc3)nn12	101 to 103
O=C(C1CCCCC1)N1CC2CC2(c2ccccc2)C1 (configuration not stated)	81 to 82
CC(=O)Nc1cc(Br)sc1Br	114 to 116
OCC(O)CNCC(O)C(O)C(O)C(O)CO (configuration not stated)	133 to 134
Cn1c2ccc(Cl)cc2c2c3ccccc3c(=O)[nH]c21	> 300
N#CCc1c(Br)csc1Br	75.5 to 77
CC1(C(=O)O)CC1(F)F (configuration not stated)	59 to 61
O=S(=O)(Cl)c1ccc2ccc(Br)cc2c1	100 to 101
CC(Oc1ccc2c(c1)C(O)C(Oc1cccnc1)CO2)c1ccc2ccccc2n1 (configuration not stated)	75 to 83
